# From patent US11827628B2, “Compositions and methods for inhibition of the JAK pathway” (Rigel Pharmaceuticals, Inc., priority 2005, dated 2023)
# Counter-ions that a name gives are not always drawn. Like-named read-outs stand apart in the source and are kept apart here.
# Columns and labels:
# [1] = tested on: IL-4 stimulated expression of CD23 in human Ramos B cells (JAK-1 and JAK-3); experiment: Assay for Ramos B-Cell Line Stimulated with IL-4 (CD23 upregulation, FACS); type: cell-based; details: read-out: IC50, Example 41
# Procedure, shortened: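 Human Ramos B cells in RPMI with 5% serum were pre-incubated with compound or DMSO for 1 h at 37 °C, then stimulated with IL-4 at a final 50 units/mL for 20-24 h. CD23 upregulation was measured by anti-CD23-PE staining and flow cytometry, and IC50 values were calculated.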
# Primary human T-cells = experiment: Primary Human T-Cell Proliferation Assay Stimulated with IL-2 (CellTiter-Glo); type: cell-based; details: read-out: IC50, Example 42
# Excerpt: The activity of the active compounds of the invention may further be characterized by assaying the effect of the 2,4-substituted pyrimidinediamine compounds described herein on the proliferative response of primary human T-cells. In this assay, primary human T-cells derived from peripheral blood and pre-activated through stimulation of the T-cell receptor and CD28, proliferate in culture in response to the cytokine Interleukin-2 (IL-2). This proliferative response is dependent on the activation of JAK1 and JAK3 tyrosine kinases, which phosphorylate and activate the transcription factor Stat-5. The primary human T-cells are incubated with the 2,4-substituted pyrimidinediamine compounds in the presence of IL-2 for 72 hours and at the assay endpoint intracellular ATP concentrations are measured to assess cell viability. A reduction in cell proliferation compared to control conditions is indicative of inhibition of the JAK kinase pathway. An exemplary assay of this type is described in greater detail in Example 42
# Primary human T-cells derived from peripheral blood and pre-activated through stimulation of the T-cell receptor and CD28, proliferate in vitro in response to the cytokine Interleukin-2 (IL-2). This proliferative response is dependent on the activation of JAK-1 and JAK-3 tyrosine kinases, which phosphorylate and activate the transcription factor Stat-5.
# Human primary T cells were prepared as follows. Whole blood was obtained from a healthy volunteer, mixed 1:1 with PBS, layered on to Ficoll Hypaque (Amersham Pharmacia Biotech, Piscataway, NJ, Catalog #17-1440-03) in 2:1 blood/PBS:ficoll ratio and centrifuged for 30 min at 4° C. at 1750 rpm. The lymphocytes at the serum: ficoll interface were recovered and washed twice with 5 volumes of PBS. The cells were resuspended in Yssel's medium (Gemini Bio-products, Woodland, CA, Catalog #400-103) containing 40 U/mL recombinant IL2 (R and D Systems, Minneapolis, MN, Catalog #202-IL (20 rig)) and seeded into a flask pre-coated with 1 μg/mL anti-CD3 (BD Pharmingen, San Diego, CA, Catalog #555336) and 5 μg/mL anti-CD28 (Immunotech, Beckman Coulter of Brea CA, Catalog #IM1376). The primary T-cells were stimulated for 3-4 days, then transferred to a fresh flask and maintained in RPMI with 10% FBS and 40 U/mL IL-2.
# Primary T-cells were washed twice with PBS to remove the IL-2 and resuspended in Yssel's medium at 2×10^6 cells/mL. 50 μL of cell suspension containing 80 U/mL IL-2 was added to each well of a flat bottom 96 well black plate. For the unstimulated control, IL-2 was omitted from the last column on the plate. Compounds were serially diluted in dimethyl sulfoxide (DMSO, 99.7% pure, cell culture tested, Sigma-Aldrich, St. Louis, MO, Catalog No. D2650) from 5 mM in 3-fold dilutions, and then diluted 1:250 in Yssel's medium. 50 μL of 2× compound was added per well in duplicate and the cells were allowed to proliferate for 72 hours at 37° C.
# Proliferation was measured using CellTiter-Glo® Luminescent Cell Viability Assay (Promega), which determines the number of viable cells in culture based on quantitation of the ATP present, as an indicator of metabolically active cells. The substrate was thawed and allowed to come to room temperature. After mixing the Cell Titer-Glo reagent and diluent together, 100 μL was added to each well. The plates were mixed on an orbital shaker for two minutes to induce lysis and incubated at room temperature for an additional ten minutes to allow the signal to equilibrate. Detection was performed using a Wallac Victor2 1420 multilabel counter purchased from Perkin Elmer, Shelton, CT The IC50 calculated based on the results of this assay are provided in TABLE XII.
# [2] = Ramos B-cell line stimulated with IL-4, CD23 expression by FACS
# [3] = primary human T-cell proliferation stimulated with IL-2
# [4] = Ramos B cells stimulated with IL-4, CD23 expression by FACS
# [5] = Homo sapiens, Ramos, Ramos B cells stimulated with IL-4, CD23 expression by FACS
Compound,"IC50 [1, 2] [nM]",IC50 (Primary human T-cells; [3]) [nM],also measured
"CC(Oc1ccc(Nc2nc(Nc3ccc(S(N)(=O)=O)cc3)ncc2F)cc1)C(N)=O (racemic) [Compound I-116, Racemic N4-[4-(1-Aminocarbonyl)ethoxy]phenyl-N2-(4-aminosulfonyl)phenyl-5-fluoro-2,4-pyrimidinediamine]",274,972,
"Cc1ccc(Nc2ncc(F)c(NC3CN(Cc4ccccc4)CCC3C)n2)cc1S(N)(=O)=O (racemic) [VII-3, Racemic N2-(3-aminosulfonyl-4-methylphenyl)-N4-(1-benzyl-4-methylpiperidin-3-yl)-5-fluoro-2,4-pyrimidinediamine]",,,"IC50 [1, 4]: 14100 nM; IC50 (Primary human T-cells; primary human T-cells stimulated with IL-2, proliferation): 16500 nM"
"N#CCOc1cccc(Nc2nc(Nc3ccc(S(N)(=O)=O)cc3)ncc2F)c1 [Compound I-3, N2-(4-Aminosulfonyl)phenyl-N4-(3-cyanomethoxy)phenyl-5-fluoro-2,4-pyrimidinediamine]",107,987,
"COc1cc(Nc2ncc(F)c(Nc3cccc(OCC#N)c3)n2)ccc1S(N)(=O)=O [Compound I-7, N2-(4-Aminosulfonyl-3-methoxy)phenyl-N4-(3-cyanomethoxy)phenyl-5-fluoro-2,4-pyrimidinediamine]",120,502,
"N#CCOc1ccc(Nc2nc(Nc3ccc(S(N)(=O)=O)cc3)ncc2F)cc1 [Compound I-16, N2-(4-Aminosulfonyl)phenyl-N4-(4-cyanomethoxy)phenyl-5-fluoro-2,4-pyrimidinediamine]",124,436,
"CN1CCN(S(=O)(=O)c2ccc(Nc3ncc(F)c(Nc4ccc(OCC#N)cc4)n3)cc2)CC1 [Compound I-18, N4-(4-Cyanomethoxy)phenyl-5-fluoro-N2-[4-(4-methylpiperazin-1-yl)sulfonyl]phenyl-2,4-pyrimidinediamine]",283,1490,
"COc1cc(Nc2ncc(F)c(Nc3ccc(OCC#N)c(C)c3)n2)ccc1S(N)(=O)=O [Compound I-29, N2-(4-Aminosulfonyl-3-methoxy)phenyl-N4-(4-cyanomethoxy-3-methyl)phenyl-5-fluoro-2,4-pyrimidinediamine]",120,502,
"CCC(=O)NS(=O)(=O)c1cc(Nc2ncc(F)c(Nc3ccc(OCC#N)cc3)n2)ccc1C [Compound I-30, N4-(4-Cyanomethyleneoxy)phenyl-5-fluoro-N2-(4-methyl-3-propionylaminosulfonyl)phenyl-2,4-pyrimidinediamine]",5430,3570,
"CCC(=O)NS(=O)(=O)c1cc(Nc2ncc(F)c(Nc3ccc(OCC#N)c(F)c3)n2)ccc1C [Compound I-49, N4-(4-Cyanomethoxy-3-fluorophenyl)-5-fluoro-N2-(4-methyl-3-propionylaminosulfonylphenyl)-2,4-pyrimidinediamine Sodium Salt]",,,"IC50 ([1]; Ramos B-cell line stimulated with IL-4, CD23 expression by FACS, sodium salt): 2320 nM; IC50 (Primary human T-cells; Homo sapiens, T-cell, primary human T-cell proliferation stimulated with IL-2): 5560 nM"
"COc1cc(Nc2ncc(F)c(Nc3ccc(OC(C)(C)C#N)cc3)n2)ccc1S(N)(=O)=O [Compound I-77, N2-(4-Aminosulfonyl-3-methoxy)phenyl-N4-[4-(1-cyano-1-methyl)ethoxy]phenyl-5-fluoro-2,4-pyrimidinediamine]",147,1620,
"N#CCC(=O)Nc1ccc(Nc2nc(Nc3cccc(S(N)(=O)=O)c3)ncc2F)cc1 [Compound I-78, N2-(3-Aminosulfonylphenyl)-N4-[4-(N-cyanoacetyl)aminophneyl]-5-fluoro-2,4-pyrimidinediamine]",635,1210,
"Cc1ccc(Nc2ncc(F)c(Nc3ccc(NC(=O)CC#N)cc3)n2)cc1S(N)(=O)=O [Compound I-79, N2-(3-Aminosulfonyl-4-methylphenyl)-N4-[4-(N-cyanoacetyl)aminophneyl]-5-fluoro-2,4-pyrimidinediamine]",461,1060,
"Cc1cc(Nc2nc(Nc3cccc(S(N)(=O)=O)c3)ncc2F)ccc1NC(=O)CC#N [Compound I-80, N2-(3-Aminosulfonylphenyl)-5-fluoroN4-[3-methyl-4-(N-cyanoacetyl)aminophneyl]-2,4-pyrimidinediamine]",365,470,
"Cc1cc(Nc2nc(Nc3ccc(C)c(S(N)(=O)=O)c3)ncc2F)ccc1NC(=O)CC#N [Compound I-81, N2-(3-Aminosulfonyl-4-methylphenyl)-5-fluoroN4-[3-methyl4-(N-cyanoacetyl)aminophneyl]-2,4-pyrimidinediamine]",360,957,
"N#CCC(=O)Nc1ccc(Nc2nc(Nc3cccc(S(N)(=O)=O)c3)ncc2F)cc1Cl [Compound I-82, N2-(3-Aminosulfonylphenyl)-N4-[3-chloro-4-(N-cyanoacetyl)aminophneyl]-5-fluoro-2,4-pyrimidinediamine]",244,1380,
"NS(=O)(=O)c1ccc(Nc2ncc(F)c(Nc3ccc(-c4ccccn4)c(OCF)c3)n2)cc1 [Compound I-177, N2-(4-Aminosulfonylphenyl)-5-fluoro-N4-[4-(2-pyridinyl)-3-fluoromethyleneoxyphenyl]-2,4-pyrimidinediamine]",,500,
"C#CCNS(=O)(=O)c1ccc(Nc2nc(Nc3ccc(S(N)(=O)=O)cc3)ncc2F)cc1 [VI-77, N2-(4-Aminosulfonylphenyl)-5-fluoro-N4-[4-(prop-2-ynylaminosulfonyl)phenyl]-2,4-pyrimidinediamine]",,,"IC50 (Primary human T-cells; Homo sapiens, T-cell, primary human T-cells stimulated with IL-2, proliferation): 43300 nM"
"CN(C)c1ccc2cc(Nc3nc(Nc4cccc(S(N)(=O)=O)c4)ncc3F)ccc2n1 [VII-76, N2-(3-Aminosulfonylphenyl)-N4-(2-N,N′-dimethylamine-quinolin-6-yl)-5-fluoro-2,4-pyrimidinediamine]",,,"IC50 [1, 4]: 673 nM"
"Cc1ccc2cccc(Nc3nc(Nc4ccc(C)c(S(N)(=O)=O)c4)ncc3F)c2n1 [VII-80, N2-(3-Aminosulfonyl-4-methylphenyl)-5-fluoro-N4-(2-methylquinolin-8-yl)-2,4-pyrimidinediamine]",,,"IC50 [1, 5]: 2030 nM"
"Cc1ccc2cccc(Nc3nc(Nc4cccc(S(N)(=O)=O)c4)ncc3F)c2n1 [VII-81, N2-(3-Aminosulfonylphenyl)-5-fluoro-N4-(2-methylquinolin-8-yl)-2,4-pyrimidinediamine]",,,"IC50 [1, 5]: 3070 nM"
"Cc1cc(COc2ccc(Nc3nc(Nc4ccc5c(c4)S(=O)(=O)NC5=O)ncc3F)cc2)no1 [VIII-1, 5-Fluoro-N4-[4-(5-methylisoxazol-3-yl)methyleneoxyphenyl]-N2-(sacchrin-6-yl)-2,4-pyrimidinediamine]",,,"IC50 [1, 4]: 1590 nM"
"N2-(3-Aminocarbonyl-5-methylphenyl)-5-fluoro-N2-[4-(1-methylpyrazol-3-yl)amidophenyl)-2,4-pyrimidinediamine [II-19]",395,,
"N2-(3-aminosulfonyl-4-methyl)phenyl-5-fluoro-N4-(4-thiomethylcarbonyl)phenyl-2,4-pyrimidinediamine [VI-95]",,,"IC50 [1, 4]: 1000 nM"
"N2-(4-aminosulfonyl)phenyl-5-fluoro-N4-(4-thiomethylcarbonyl)phenyl-2,4-pyrimidinediamine [VI-94]",,,"IC50 [1, 4]: 944 nM"
"N4-(2-Amino-3-methoxypyrid-6-yl)-N2-[3-(ethoxycarbonylmethylene)aminosulfonylphenyl)-5-fluoro-2,4-pyrimidinediamine [VII-10]",,,"IC50 [1, 4]: 863 nM"
